Laboratory results published in ChEMBL document CHEMBL1811886 (J Med Chem, 2011).

What was measured:
Rattus norvegicus = test: Inhibition of RAMH-induced dipsogenia in Long Evans rat administered as po 15 mins prior to RAMH challenge; type: functional
Histamine H3 receptor [1] = target: T1, Histamine H3 receptor (Homo sapiens, UniProt Q9Y5N1); test: Inverse agonist activity at human histamine H3 receptor assessed as inhibition of R-alpha-methylhistamine induced [35S]GTPgammaS binding; type: functional
T1 sequence (Q9Y5N1 whole entry): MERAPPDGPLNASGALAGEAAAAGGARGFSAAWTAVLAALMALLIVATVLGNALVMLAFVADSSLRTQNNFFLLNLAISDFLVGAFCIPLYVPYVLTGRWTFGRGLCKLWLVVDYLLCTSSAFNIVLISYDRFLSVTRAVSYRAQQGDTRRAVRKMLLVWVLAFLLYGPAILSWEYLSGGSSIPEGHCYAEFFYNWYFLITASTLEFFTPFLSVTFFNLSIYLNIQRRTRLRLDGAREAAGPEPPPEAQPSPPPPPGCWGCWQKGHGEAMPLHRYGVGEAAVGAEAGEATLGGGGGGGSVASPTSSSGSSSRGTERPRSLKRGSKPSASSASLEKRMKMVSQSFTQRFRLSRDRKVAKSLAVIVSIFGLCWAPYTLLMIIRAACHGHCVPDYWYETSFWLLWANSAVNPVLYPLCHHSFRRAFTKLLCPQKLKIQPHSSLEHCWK

[2] = Distribution coefficient log D of the compound at pH 7.4; type: physicochemical; settings: octanol/water
Histamine H3 receptor [3] = target: T1, Histamine H3 receptor; test: Displacement of [3H]NAMH from human histamine H3 receptor expressed in CHO cells; type: cell-based
[4] = Systemic clearance in fasted Sprague-Dawley rat at 1 mg/kg, iv after 6 to 24 hrs by LC-MS/MS analysis; type: ADME, organism-based; parameters: dose 1 mg/kg, route intravenous; settings: in vivo
[5] = Terminal half life in fasted Sprague-Dawley rat at 1 mg/kg, iv after 6 to 24 hrs by LC-MS/MS analysis; type: ADME, organism-based; parameters: dose 1 mg/kg, route intravenous; settings: in vivo, read-out: beta t1/2 (converted)
Histamine H3 receptor [6] = target: T1, Histamine H3 receptor; test: Antagonist activity against human histamine H3 receptor assessed as inhibition of R-alpha-methylhistamine induced [35S]GTPgammaS binding; type: functional
Histamine H3 receptor [7] = target: T2, Histamine H3 receptor (Rattus norvegicus, UniProt Q9QYN8); test: Displacement of [3H]NAMH from rat histamine H3 receptor expressed in CHO cells; type: cell-based
T2 sequence (Q9QYN8 whole entry): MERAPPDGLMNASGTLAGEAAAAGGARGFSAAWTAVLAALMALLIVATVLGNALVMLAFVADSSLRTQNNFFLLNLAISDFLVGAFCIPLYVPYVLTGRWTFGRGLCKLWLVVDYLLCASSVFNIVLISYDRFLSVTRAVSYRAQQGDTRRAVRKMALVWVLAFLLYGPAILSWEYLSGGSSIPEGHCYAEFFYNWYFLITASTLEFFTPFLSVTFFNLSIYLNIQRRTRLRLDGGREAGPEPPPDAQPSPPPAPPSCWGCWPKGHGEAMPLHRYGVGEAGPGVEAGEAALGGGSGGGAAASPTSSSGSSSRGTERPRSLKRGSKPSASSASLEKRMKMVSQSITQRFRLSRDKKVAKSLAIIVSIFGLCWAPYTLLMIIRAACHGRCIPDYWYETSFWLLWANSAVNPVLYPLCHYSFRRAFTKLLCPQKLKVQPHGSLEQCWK

[8] = Oral bioavailability in fasted Sprague-Dawley rat at 10 mg/kg after 24 hrs by LC-MS/MS analysis; type: ADME, organism-based; settings: in vivo
[9] = Ratio of drug uptake in brain to plasma of fasted Sprague-Dawley rat at 1 mg/kg, iv after 6 to 24 hrs by LC-MS/MS analysis; type: ADME, organism-based; parameters: dose 1 mg/kg, route intravenous; settings: read-out: BPR
Histamine H3 receptor [10] = target: T2, Histamine H3 receptor; test: Inverse agonist activity at rat histamine H3 receptor assessed as inhibition of R-alpha-methylhistamine induced [35S]GTPgammaS binding; type: functional
[11] = target: Voltage-gated inwardly rectifying potassium channel KCNH2 (Homo sapiens, UniProt Q12809); test: Inhibition of recombinant human ERG channel expressed in human HEK 293 cells by patch clamp assay; type: cell-based, HEK293
Chain of Voltage-gated inwardly rectifying potassium channel KCNH2 (Q12809 whole entry): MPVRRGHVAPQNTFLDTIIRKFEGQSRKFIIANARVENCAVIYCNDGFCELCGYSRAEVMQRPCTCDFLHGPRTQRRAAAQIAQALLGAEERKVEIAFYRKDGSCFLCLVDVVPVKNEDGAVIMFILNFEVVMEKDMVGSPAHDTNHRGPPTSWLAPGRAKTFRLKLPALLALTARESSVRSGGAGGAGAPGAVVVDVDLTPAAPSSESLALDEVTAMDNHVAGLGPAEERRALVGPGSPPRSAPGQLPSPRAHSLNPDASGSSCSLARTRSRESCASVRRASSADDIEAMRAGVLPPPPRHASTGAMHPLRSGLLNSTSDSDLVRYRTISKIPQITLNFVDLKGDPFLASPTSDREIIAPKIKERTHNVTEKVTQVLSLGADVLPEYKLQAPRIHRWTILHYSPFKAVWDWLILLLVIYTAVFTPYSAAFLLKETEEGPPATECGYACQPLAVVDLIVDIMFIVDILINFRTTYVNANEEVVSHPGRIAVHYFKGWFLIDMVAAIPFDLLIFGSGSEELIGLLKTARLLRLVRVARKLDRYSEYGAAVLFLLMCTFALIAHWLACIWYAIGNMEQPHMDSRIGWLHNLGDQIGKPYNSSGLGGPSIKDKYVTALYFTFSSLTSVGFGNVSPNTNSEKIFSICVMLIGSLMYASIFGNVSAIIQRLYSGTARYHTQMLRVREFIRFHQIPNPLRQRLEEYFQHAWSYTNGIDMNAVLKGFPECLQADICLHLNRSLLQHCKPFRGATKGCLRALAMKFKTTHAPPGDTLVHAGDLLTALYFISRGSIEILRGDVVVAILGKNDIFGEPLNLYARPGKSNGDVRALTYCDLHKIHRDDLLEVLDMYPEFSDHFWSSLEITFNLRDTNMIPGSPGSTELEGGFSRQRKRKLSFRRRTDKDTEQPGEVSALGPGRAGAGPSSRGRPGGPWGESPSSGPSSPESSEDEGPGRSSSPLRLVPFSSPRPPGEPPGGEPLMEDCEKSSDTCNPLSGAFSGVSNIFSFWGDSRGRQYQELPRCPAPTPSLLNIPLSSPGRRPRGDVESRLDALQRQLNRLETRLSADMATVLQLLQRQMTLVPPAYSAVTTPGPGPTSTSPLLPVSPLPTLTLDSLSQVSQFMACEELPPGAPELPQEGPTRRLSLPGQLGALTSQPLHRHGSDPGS

[12] = Oral bioavailability in fasted Sprague-Dawley rat at 5 mg/kg after 6 hrs by LC-MS/MS analysis; type: ADME, organism-based; settings: in vivo

## C[C@@H]1CCCN1CCCOc1ccc(-c2ccc(=O)n(C)n2)cc1
Rattus norvegicus
  ED50: 0.14 mg/kg
Histamine H3 receptor [1]
  EC50: 1 nM
[2]
  logD: 0.8
Histamine H3 receptor [3]
  Ki: 1.4 nM
[4]
  clearance: 45 mL/min/kg
[5]
  half-life: 1.6 h
Histamine H3 receptor [6]
  Kb: 0.5 nM
Histamine H3 receptor [7]
  Ki: 6.3 nM
[8]
  bioavailability: 39%
[9]
  Kp: 3.5
Histamine H3 receptor [10]
  EC50: 2.2 nM
[11]
  IC50: 13000 nM

## C[C@@H]1CCCN1CCCOc1ccc(-c2ccc(=O)n(-c3ccccc3)n2)cc1
Histamine H3 receptor [3]
  Ki: 2.5 nM
[4]
  clearance: 11.7 mL/min/kg
[5]
  half-life: 2.1 h
Histamine H3 receptor [7]
  Ki: 7.9 nM
[9]
  Kp: 6.2
[12]
  bioavailability: 10%

## C[C@H]1CCCN1CCCOc1ccc(-c2ccc(=O)[nH]n2)cc1
Histamine H3 receptor [3]
  Ki: 16 nM
[4]
  clearance: 14.5 mL/min/kg
[5]
  half-life: 1.6 h
Histamine H3 receptor [7]
  Ki: 50 nM
[9]
  Kp: 3.1
[12]
  bioavailability: 25%

## O=c1ccc(-c2ccc(OCCCN3CCCC3)cc2)n[nH]1
Histamine H3 receptor [3]
  Ki: 16 nM
Histamine H3 receptor [7]
  Ki: 45 nM

## CCn1nc(-c2ccc(OCCCN3CCC[C@H]3C)cc2)ccc1=O
Histamine H3 receptor [3]
  Ki: 3.9 nM
[4]
  clearance: 238 mL/min/kg
[5]
  half-life: 0.4 h
Histamine H3 receptor [7]
  Ki: 11 nM
[9]
  Kp: 1.5
[12]
  bioavailability: 18%

## C[C@@H]1CCCN1CCCOc1ccc(-c2cn[nH]c(=O)c2)cc1
Rattus norvegicus
  ED50: 0.03 mg/kg
Histamine H3 receptor [1]
  EC50: 1.1 nM
Histamine H3 receptor [3]
  Ki: 2.8 nM
[4]
  clearance: 9.6 mL/min/kg
[5]
  half-life: 1 h
Histamine H3 receptor [6]
  Kb: 0.4 nM
Histamine H3 receptor [7]
  Ki: 8.5 nM
[8]
  bioavailability: 24%
[9]
  Kp: 1.8
Histamine H3 receptor [10]
  EC50: 2.1 nM
[11]
  IC50: 9500 nM

## C[C@@H]1CCCN1CCCOc1ccc(-n2ncccc2=O)cc1
Histamine H3 receptor [3]
  Ki: 82 nM
Histamine H3 receptor [7]
  Ki: 347 nM

## Cn1nc(-c2ccc(OCCCN3CCC[C@H]3CO)cc2)ccc1=O
[4]
  clearance: 90 mL/min/kg
[5]
  half-life: 1 h
Histamine H3 receptor [7]
  Ki: 48 nM
[9]
  Kp: 1.4
[12]
  bioavailability: 43%

## O=c1ccc(-c2ccc(OCCCN3CCCCC3)cc2)n[nH]1
Histamine H3 receptor [3]
  Ki: 8.7 nM
[4]
  clearance: 4.9 mL/min/kg
[5]
  half-life: 0.9 h
Histamine H3 receptor [7]
  Ki: 37 nM
[9]
  Kp: 1.9
[12]
  bioavailability: 11%
